Data published in the supplement of paper PMC5908809.

Key:
[1] = system: normal NK cells expanded with K562-aAPC; experiment: drug sensitivity score (DSS) (DSS units); higher = more sensitive; extreme values may be limits of the assay; conditions: 72 h; IL-2 2.5 ng/mL
Method: (§1)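 Drug sensitivity and resistance testing on K562-aAPC-expanded normal NK cells: 5 concentrations (10-fold steps over a 10,000-fold range), 72 h at 37 °C, viability by CellTiter-Glo normalised to DMSO and benzethonium chloride controls; DSS from the fitted curve.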

[2] = system: normal NK cells expanded with K562-aAPC; experiment: percent inhibition of viability; higher = more inhibition; conditions: 72 h, IL-2 2.5 ng/mL
Method: as §1

[3] = system: normal primary NK cells, pool 1 (3 donors), resting (IL-2 0 ng/mL); experiment: as above; conditions: 72 h
[4] = system: normal primary NK cells, pool 2 (3 donors) (IL-2 2.5 ng/mL); experiment: as above; conditions: 72 h
[5] = system: KAI3 (IL-2 2.5 ng/mL); experiment: as above; conditions: 72 h
[6] = system: KHYG-1 (IL-2 2.5 ng/mL); experiment: as above; conditions: 72 h
[7] = system: NKL (IL-2 2.5 ng/mL); experiment: as above; conditions: 72 h
[8] = system: YT (IL-2 2.5 ng/mL); experiment: as above; conditions: 72 h
[9] = system: IMC-1 (IL-2 20 ng/mL); experiment: as above; conditions: 72 h
[10] = system: DERL-7 (IL-2 2.5 ng/mL); experiment: as above; conditions: 72 h
[11] = system: NK-92 (IL-2 2.5 ng/mL); experiment: as above; conditions: 72 h
[12] = system: normal primary NK cells, pool 3 (3 donors) (IL-2 2.5 ng/mL); experiment: as above; conditions: 72 h
[13] = system: NK-YS (IL-2 2.5 ng/mL); experiment: as above; conditions: 72 h
[14] = system: normal primary NK cells, pool 1 (3 donors) (IL-2 2.5 ng/mL); experiment: as above; conditions: 72 h
[15] = system: SNK-6 (IL-2 2.5 ng/mL); experiment: as above; conditions: 72 h
[16] = system: normal primary NK cells, pool 1 (3 donors), resting (IL-2 0 ng/mL); experiment: drug sensitivity score (DSS) (DSS units); higher = more sensitive; extreme values may be limits of the assay; conditions: 72 h
[17] = system: normal primary NK cells, pool 2 (3 donors) (IL-2 2.5 ng/mL); experiment: as above; conditions: 72 h
[18] = system: KAI3 (IL-2 2.5 ng/mL); experiment: as above; conditions: 72 h
[19] = system: KHYG-1 (IL-2 2.5 ng/mL); experiment: as above; conditions: 72 h
[20] = system: NKL (IL-2 2.5 ng/mL); experiment: as above; conditions: 72 h
[21] = system: YT (IL-2 2.5 ng/mL); experiment: as above; conditions: 72 h
[22] = system: IMC-1 (IL-2 20 ng/mL); experiment: as above; conditions: 72 h
[23] = system: DERL-7 (IL-2 2.5 ng/mL); experiment: as above; conditions: 72 h
[24] = system: NK-92 (IL-2 2.5 ng/mL); experiment: as above; conditions: 72 h
[25] = system: normal primary NK cells, pool 3 (3 donors) (IL-2 2.5 ng/mL); experiment: as above; conditions: 72 h
[26] = system: NK-YS (IL-2 2.5 ng/mL); experiment: as above; conditions: 72 h
[27] = system: normal primary NK cells, pool 1 (3 donors) (IL-2 2.5 ng/mL); experiment: as above; conditions: 72 h
[28] = system: SNK-6 (IL-2 2.5 ng/mL); experiment: as above; conditions: 72 h

CN1CCN(CCOc2cc(OC3CCOCC3)c3c(Nc4c(Cl)ccc5c4OCO5)ncnc3c2)CC1 [Saracatinib] (max concentration tested 10000 nM)
Conditions | drug sensitivity score
[1] | 6.3
[16] | 7.66
[17] | 0
[18] | 4.31
[19] | 4.35
[20] | 2.2
[21] | 7.37
[22] | 5.54
[23] | 6.92
[24] | 6.22
[25] | 0
[26] | 3.64
[27] | 2.04
[28] | 0.27

percent inhibition of viability [%]
Conditions | 1 nM | 10 nM | 100 nM | 1000 nM | 10000 nM
[2] | -1.72 | -3.19 | 2.46 | 6.91 | 94.3
[3] | -9.8 | 15.2 | 16.2 | 24 | 85.8
[4] | -0.71 | -2.6 | 6.1 | -10.6 | 9.82
[5] | -1.92 | -9.84 | -6.46 | 7.42 | 56.8
[6] | -5.13 | -8 | -4.22 | 0.25 | 77.8
[7] | -14.8 | -18.5 | -9.99 | -5.02 | 48.9
[8] | -2.96 | -2.67 | -0.94 | 26.4 | 68.2
[9] | -4.77 | -2.25 | -2.36 | -0.89 | 100
[10] | -0.15 | 1.98 | 7.09 | 17.7 | 74.7
[11] | -2.32 | 4.14 | 9.55 | 18.4 | 68.4
[12] | -6.07 | 9.22 | 9.63 | -17.2 | 0.69
[13] | -1.8 | -3.94 | -0.18 | 5.62 | 51.1
[14] | -9.24 | 11.2 | 7.65 | -4.55 | 45.9
[15] | -3.28 | -15.1 | -18 | -41.3 | 21.7

CC[C@H](CO)Nc1nc(NCc2ccccc2)c2ncn(C(C)C)c2n1 [Seliciclib] (max concentration tested 10000 nM)
Conditions | drug sensitivity score
[1] | 1.71
[16] | 2.43
[17] | 1.7
[18] | 4.72
[19] | 0.62
[20] | 3.69
[21] | 4.39
[22] | 0.28
[23] | 1.62
[24] | 4.81
[25] | 0.41
[26] | 3.07
[27] | 2.2
[28] | 0.43

percent inhibition of viability [%]
Conditions | 1 nM | 10 nM | 100 nM | 1000 nM | 10000 nM
[2] | -5.19 | -1.17 | -5.63 | 3.89 | 27.1
[3] | -1.46 | -6.05 | 15.1 | 7.69 | 9.97
[4] | -12.7 | -4.83 | 5.97 | 1.18 | 33.5
[5] | -1.01 | -9.53 | -1.56 | 6.38 | 67.1
[6] | 4.31 | -8.69 | -4.34 | 1.22 | 18.6
[7] | -8.83 | -15.7 | -16.8 | 10.3 | 41.6
[8] | 2.72 | -5.9 | -1.61 | 9.31 | 53.2
[9] | -6.54 | -8.7 | -1.13 | 2.41 | 13.2
[10] | -1.96 | 7.05 | 6.82 | 0.8 | 33.1
[11] | -2.72 | -1.58 | -0.03 | 23.2 | 39.9
[12] | 0.36 | 1.61 | 11.3 | -0.47 | 17.9
[13] | 8.26 | -2 | -1.62 | 7.11 | 38.7
[14] | -1.6 | -3.91 | 11.5 | 8.66 | 32.8
[15] | -14.8 | -13.5 | -3.42 | -23.2 | 23.9

O=C(O)c1ccc2c(c1)nc(Nc1cccc(Cl)c1)c1ccncc12 [Silmitasertib] (max concentration tested 10000 nM)
Conditions | drug sensitivity score
[1] | 8.41
[16] | 2.91
[17] | 5.68
[18] | 7.33
[19] | 7.83
[20] | 6.45
[21] | 7.24
[22] | 2.35
[23] | 7.04
[24] | 4.09
[25] | 5.54
[26] | 6.72
[27] | 7.64
[28] | 4.04

percent inhibition of viability [%]
Conditions | 1 nM | 10 nM | 100 nM | 1000 nM | 10000 nM
[2] | 6.72 | 1.13 | 2.51 | 24.6 | 85.7
[3] | -25.1 | -31.8 | -43.9 | -9.05 | 63.9
[4] | -8.83 | -6.36 | 2.09 | 8.72 | 76.5
[5] | 4.28 | 8.25 | 8.8 | 16.1 | 84.8
[6] | 2.32 | 3.89 | 1.97 | 14.4 | 98.1
[7] | 11.5 | 10.7 | 2.41 | 13.4 | 76.3
[8] | 5.21 | 5.15 | 4.79 | 17.7 | 79.9
[9] | 7.09 | 6.12 | 5.81 | -2.16 | 48.4
[10] | -3.79 | 0.67 | -2.32 | 10.4 | 96
[11] | 6.03 | 10.9 | -12.3 | -16.9 | 90.2
[12] | -4.66 | -2.89 | -4.84 | 9.91 | 70.3
[13] | 5.01 | 1.7 | 1.66 | 10.8 | 88.7
[14] | -9.41 | -7.07 | -7.39 | 18.1 | 85.6
[15] | 4.5 | 3.13 | -1.8 | -10.8 | 85.2
